{
  "source": "patent EP0330017A2",
  "about": "“Use of thiazoles for increasing animal performance” (BOEHRINGER INGELHEIM VETMEDICA GMBH, priority 1988, dated 1989)",
  "key": {"[1]": {"assay": "Performance promotion in lambs, 42-day feeding trial (weight gain, carcass quality)", "type": "in vivo, Lämmern", "settings": "42-day trial", "description": "(§1) Die leistungsfördernde Wirkung der vorstehend erwähnten Thiazole wurde beispielsweise an der Verbindung N-[2-(4-Carboxymethoxyphenyl)-1-methylethenyl]-2-(2-trifluormethyl-thiazol-4-yl)morpholin wie folgt geprüft:\n2.) 2 Gruppen von 12 Lämmern erhielten identisches Futter und Wasser ad libitum. Die eine Gruppe erhielt zusätzlich 8 ppm der vorstehend erwähnten Verbindung. Während der 42-tä-gigen Versuchsperiode wurden Gewichtszunahme und Parameter der Schlachtkörperqualität gegenüber der Kontrolle bestimmt."}, "[2]": {"assay": "Performance promotion in pigs, 33-day feeding trial (weight gain, feed consumption, carcass quality)", "type": "in vivo, Schweinen", "settings": "8 ppm test compound in feed, 33-day trial, 10 pigs", "description": "as §1\n3.) 2 Gruppen von 10 Schweinen, wobei jedes Tier einzeln gefüttert wurde, erhielten identisches Futter und Wasser ad libitum. Die eine Gruppe erhielt zusätzlich 8 ppm der vorstehend erwähnten Verbindung. Während der 33-tägigen Versuchsperiode wurden Gewichtszunahme, Futterverbrauch der Schlachtkörperqualität gegenüber der Kontrollgruppe bestimmt."}, "[3]": {"assay": "Performance promotion in lambs, 33-day feeding trial (weight gain, feed consumption)", "type": "in vivo, Lämmern", "settings": "33-day trial", "description": "as §1\n1.) 2 Gruppen von 7 Lämmern, wobei jedes Tier einzeln gehalten wurde, erhielten identisches Futter und Wasser ad libitum. Die eine Gruppe erhielt zusätzlich 8 ppm der vorstehend erwähnten Verbindung. Während der 33-tägigen Versuchsperiode wurden Gewichtszunahme und Futterverbrauch gegenüber der Kontrollgruppe bestimmt."}, "[4]": {"settings": "8 ppm test compound in feed, 12 lambs"}, "[5]": {"settings": "8 ppm test compound in feed, 7 lambs"}},
  "data": [
    {"compound": "CC(Cc1ccc(OCC(=O)O)cc1)N1CCOC(c2csc(C(F)(F)F)n2)C1", "note": "(centres unmarked) [Testverbindung]", "values": [
      {"measurement": "Endgewicht", "setting": "[1]; [4]", "result": "46,6 kg"},
      {"measurement": "Gewicht des musculus longissimus dorsi", "setting": "[1]; [4]", "result": "324,0 g"},
      {"measurement": "Gewichtszunahme", "setting": "[1]; [4]", "result": "320,0 g/Tag"},
      {"measurement": "Rückenfettdicke", "setting": "[1]; [4]", "result": "1,78 mm"},
      {"measurement": "Schlachtkörperzusammensetzung: Fett", "setting": "[1]; [4]", "result": "16,1%"},
      {"measurement": "Schlachtkörperzusammensetzung: Fleisch", "setting": "[1]; [4]", "result": "69,1%"},
      {"measurement": "Schlachtkörperzusammensetzung: Knochen", "setting": "[1]; [4]", "result": "14,8%"},
      {"measurement": "Gewicht des musculus longissimus dorsi, Abweichung zur Kontrolle", "setting": "[1]; 8 ppm vs 0 ppm control, lambs", "result": "+6,9%"},
      {"measurement": "Schlachtkörperzusammensetzung: Fett, Abweichung zur Kontrolle", "setting": "[1]; 8 ppm vs 0 ppm control, lambs", "result": "-6,9%"},
      {"measurement": "Schlachtkörperzusammensetzung: Fleisch, Abweichung zur Kontrolle", "setting": "[1]; 8 ppm vs 0 ppm control, lambs", "result": "+1,2%"},
      {"measurement": "Schlachtkörperzusammensetzung: Knochen, Abweichung zur Kontrolle", "setting": "[1]; 8 ppm vs 0 ppm control, lambs", "result": "+2,8%"},
      {"measurement": "Ausschlachtung", "setting": "[2]", "result": "77,2%"},
      {"measurement": "Endgewicht", "setting": "[2]", "result": "97,6 kg"},
      {"measurement": "Futterverwertung (kg Futter/kg Zunahme)", "setting": "[2]", "result": "3,17 kg Futter/kg Zunahme"},
      {"measurement": "Gewichte verschiedener Teilstücke: Rippe", "setting": "[2]", "result": "7,25 kg"},
      {"measurement": "Gewichte verschiedener Teilstücke: Schinken", "setting": "[2]", "result": "7,46 kg"},
      {"measurement": "Gewichte verschiedener Teilstücke: Schulter", "setting": "[2]", "result": "9,48 kg"},
      {"measurement": "Gewichtszunahme", "setting": "[2]", "result": "754,0 g/Tag"},
      {"measurement": "Rückenmuskelfläche", "setting": "[2]", "result": "32,3 cm²"},
      {"measurement": "Endgewicht", "setting": "[3]; [5]", "result": "43,9 kg"},
      {"measurement": "Futteraufnahme", "setting": "[3]; [5]", "result": "1598,0 g/Tag"},
      {"measurement": "Futterverwertung (kg Zunahme/kg Futter)", "setting": "[3]; [5]", "result": "0,161 kg Zunahme/kg Futter"},
      {"measurement": "Gewichtszunahme", "setting": "[3]; [5]", "result": "258,0 g/Tag"},
      {"measurement": "Futteraufnahme, Abweichung zur Kontrolle", "setting": "[3]; 8 ppm vs 0 ppm control, lambs", "result": "+4,4%"},
      {"measurement": "Futterverwertung (kg Zunahme/kg Futter), Abweichung zur Kontrolle", "setting": "[3]; 8 ppm vs 0 ppm control, lambs", "result": "+50,5%"},
      {"measurement": "Gewichtszunahme, Abweichung zur Kontrolle", "setting": "[3]; 8 ppm vs 0 ppm control, lambs", "result": "+57,3%"}
    ]}
  ]
}
